Measured values as given in US20240142457A1, “USE OF CASD1 AS A BIOMARKER OF A CANCER EXPRESSING THE O-ACETYLATED-GD2 GANGLIOSIDE” (OGD2 PHARMA, priority 2021, published 2024).

Key:
[1] = tested on: OAcGD2 expression in MDA-MB-231 GD3S+ cells; assay: siRNA screen, OAcGD2 immunofluorescence (8B6 mAb) with automated imaging; format: cell-based, human; settings: fixed cells treated with NaOH 0.1M before primary antibody staining, compared to siNT transfected wells
Method: 2.5 μL/well of 500 nM siGenome siRNA (Dharmacon/Horizon) was printed into blackwalled 384 well cell carrier ultra plates (Perkin Elmer) with Velocity 11 (Agilent) as described before (Chia et al., 2012, Mol. Syst. Biol., 8: 629.). Reverse siRNA transfection was performed by pre-mixing 0.1 μL of Dharmafect 1 transfection reagent (#T-2001-03, Horizon) with 7.4 μL of Optimem for 5 minutes. Addition of mixture to the siRNA plate was then performed with small multidrop combi cassette (Thermo-Fisher) and was left for complexation for 20 minutes with shaking. Addition of 2750 cells in 40 μL of DMEM supplemented with 10% FCS per well was then performed with multidrop combi standard cassette at medium speed (Thermo-Fisher). siRNA targeting-GD2S (L-011279-00-0020, Horizon), Polo like kinase 1 (PLK1; L-003290-00-0020, Horizon) and […] (D-001810-10-20, Horizon) were used as screen controls.
After 72 h of incubation, transfected cells were fixed with 50 μL per well of 4% paraformaldehyde in 2% sucrose and 0.1M sodium phosphate buffer, […] at 37° C. […]
An OAcGD2 expression metric was derived with total cell thresholded fluorescence intensity obtained by immunodetection with 8B6 mAb in MDA-MB-231 GD3S+cells and was normalized with Hoeschst nuclei counts. […]

[2] = tested on: OAcGD2 expression in MDA-MB-231 GD3S+ cells; assay: OAcGD2 immunocytochemistry and confocal microscopy after CERK inhibitor or siRNA; format: cell-based, human; settings: 1 μM NVP231, 2, 4, 6, 8, 20, 24 or 48 hours; increase from 2 to 8 hours, decrease after 8 hours
Method: (§1) Transfections were performed with 10 μM of siRNA control non-targeting (D001810-10-20, Horizon), siRNA targeting CASD1 (L-016926-01-0010, Horizon), or two different siRNA targeting CERK: CERK2 (D-004061-02-0010, Horizon), or CERK4 ([…], Horizon) and 4 μL of RNAimax (#137781, Thermo fischer Scientific) in 500 μL of UltraMEM (Lonza). In 6-well plates, 150,000 cells were grown in 1,5 mL of DMEM and transfection mix. Cells were collected 72 hours after transfection for qPCR or immunocytochemistry experiments.
Cells were seeded in 6-well plates (150,000 cells/well) with coverslips in 2 mL of DMEM medium. After 24 hours, the medium was replaced with DMEM containing 1 μM of the CERK inhibitor NVP231 (SigmaN9289). After 2 h, 4 h, 6 h, 8 h, 20 h, 24 h or 48 h of CERK inhibitor treatment, cells were collected for immunocytochemistry experiments.
Transfected cells were grown on glass coverslips and were fixed for 20 min in 4% paraformaldehyde. Cells were washed three times with PBS 1X and membrane permeabilization was performed in 5 μg/mL digitonine in PBS 1X for 20 min. After 3 washes, cells were saturated in PBS 1X-BSA 0.5% blocking buffer. […] The green fluorescence was acquired with λex=488 nm and λem=500-530 nm, DAPI with λex=350 nm and λem=460 nm. […] Mean fluorescence intensity was calculated with macro using ImageJ.

MDA-MB-231 GD3S+ cells = assay: Transwell migration assay; format: cell-based, human; settings: 1 μM NVP231, 24 hours, vs untreated
Method: as §1
Cells were seeded in 12-well plates containing migration chamber in serum-free medium. Below the chamber, medium with serum was added into the wells in the presence or absence of 1 μM of NVP231. After 24 hours incubation at 37° C., wells were fixed with 4% paraformaldehyde and non-migratory cells were swapped with cotton swabs. Cells were washed three times and nuclei were stained with DAPI. Membranes were cut out and mounted between glass slide and coverslip with fluorescent mounting medium. Nuclei were counted using A1 Nikon confocal microscopy.

[3] = attributed to GD2 expression in healthy peripheral nerve fibers; cited from earlier work

## [Na+].[OH-] [NaOH, Sodium hydroxide]
[1]
  OAcGD2 staining: abolished

## O=C(Nc1nc2ccc(NC(=O)C34CC5CC(CC(C5)C3)C4)cc2s1)c1ccccc1 [CERK inhibitor, NVP231]
[2]
  OAcGD2 expression (mean fluorescence intensity): transitory overexpression
MDA-MB-231 GD3S+ cells
  migration capacity of the cells: no effect

B1: Dinutuximab: anti-GD2 monoclonal antibody approved for pediatric high-risk neuroblastoma (antibody, chains of the INN, looked up, V domains shown)
VH: EVQLLQSGPELEKPGASVMISCKASGSSFTGYNMNWVRQNIGKSLEWIGAIDPYYGGTSYNQKFKGRATLTVDKSSSTAYMHLKSLTSEDSAVYYCVSGMEYWGQGTSVTVSS
VL: EIVMTQSPATLSVSPGERATLSCRSSQSLVHRNGNTYLHWYLQKPGQSPKLLIHKVSNRFSGVPDRFSGSGSGTDFTLKISRVEAEDLGVYFCSQSTHVPPLTFGAGTKLELK
[3]
  side effects: severe side effects
